The test system of experiment [1] is cells in culture. Kind of experiment: Vacuolization activity in cells in culture. The class given is cell-based. The source says: As used herein the term “EC50 (μM)” refers to the μM concentration of a compound that is required for 50% activity in a vacuolization assay.
Example 2 is a biotinylated derivative of the compound of Example 1.

The test system of experiment [2] is U251 or RKO cells. Briefly: Cathepsin D western blotting. As to conditions: 18 hours. It is filed as cell-based. The procedure:
Macroautophagy (hereafter “autophagy”) is a process that requires precise fusion of endosomes, autophagosomes, and lysosomes. Lysates from cells treated with Example 1 were prepared and probed by western blotting for LC3-I and LC3-II. Increased levels of LC3-II and increased p62 (sequestesome) were found showing the increased drive to undergo autophagy, in the face of inability to complete the process (i.e. ineffective autophagy). Lysosomes are the final destination of proteins destined for degradation by autophagy, and proteolysis in this organelle depends upon cathepsins among other enzymes.
U251 or RKO cells were treated with Example 1 at the indicated concentrations for 18 hours, and then analyzed by western blotting for cathepsin D and actin (loading control).
U251 or RKO cells were plated onto 10 cm tissue culture dishes and grown in the conditions described previously. When cells were growing in log phase and reached approximately 60% confluency, Example 1 was diluted into the growth media at the indicated concentrations. Cells were incubated at 5% CO2, 37° C. for 18 hr, then washed and harvested as described previously. Cells were pelleted by centrifugation at 180×g, resuspended in 20 mL of 1×PBS pH 7.4, and centrifuged again. […]

pEC50: −log10 of the molar value.

Consider `Cc1ccc(Nc2nc(N/N=C/c3c[nH]c4ccccc34)cc(N3CCOCC3)n2)cc1` [Example 3, (E)-4-(2-((1H-indol-3-yl)methylene)hydrazinyl)-6-morpholino-N-(p-tolyl)pyrimidin-2-amine], for which, in experiment [1], the pEC50 was 8.40.

For the molecule `Cc1ccc(Nc2nc(N/N=C/c3c[nH]c4ccccc34)nc(N3CCOCC3)n2)cc1` [Example 1, (E)-4-(2-((1H-indol-3-yl)methylene)hydrazinyl)-6-morpholino-N-(p-tolyl)-1,3,5-triazin-2-amine], in experiment [2], the mature cleaved cathepsin entry is reported as “relative loss” and the “uncleaved precursor cathepsin D” value is listed as “accumulation”.

The term pEC50 denotes the EC50 on a negative log10 scale, so that one unit is a factor of ten. Lower therefore signals a large EC50.

The values above are taken from patent US12030896B2, “PIKfyve inhibitors” (Mayo Foundation for Medical Education and Research, priority 2018, dated 2024).
